Where two headings read alike, the source gives them in different places.
Test system: subjects with PAD
Description: Supine vital signs were measured at the Screening Visit. The subject rested in a supine position for a minimum of 3 minutes prior to obtaining vital sign measurements. Vital signs included BP and pulse rate. Postural vital signs, including both supine and standing measurements of blood pressure and pulse rate, were recorded at all study visits following the first dose of IP administration. Measurements were performed as follows: (1) the subject rested in a supine position for a minimum of 3 minutes, (2) vital signs (BP and pulse rate) were measured while the subject was supine, (3) the subject assumed a standing position for a minimum of 5 minutes, and (4) vital signs (BP and pulse rate) were measured while the subject was standing.

[1] = 40-mg group, Screening (baseline)
[2] = 40-mg group, Visit 7 (Day 71, dose doubled)
[3] = 40-mg group, Visit 8 (6 days after dose doubling)
[4] = 80-mg group, Screening (baseline)
[5] = 80-mg group, Visit 7 (Day 71, dose doubled)
[6] = 80-mg group, Visit 8 (6 days after dose doubling)

SMILES: O=NO [sodium nitrite]
- Blood Pressure diastolic, Supine (Mean) [1]: 75.8
- Blood Pressure systolic, Supine (Mean) [1]: 136.8
- Pulse, Supine (Mean) [1]: 71.4
- Blood Pressure diastolic, Standing (Mean) (40-mg group, Visit 1 (Day 0)): 73.1
- Blood Pressure diastolic, Supine (Mean) (40-mg group, Visit 1 (Day 0)): 72.3
- Blood Pressure systolic, Standing (Mean) (40-mg group, Visit 1 (Day 0)): 129.5
- Blood Pressure systolic, Supine (Mean) (40-mg group, Visit 1 (Day 0)): 129.7
- Diastolic BP, Orthostatic Changes (40-mg group, Visit 1 (Day 0)): 0.8
- Pulse, Orthostatic Changes (40-mg group, Visit 1 (Day 0)): 1.8
- Pulse, Standing (Mean) (40-mg group, Visit 1 (Day 0)): 75.8
- Pulse, Supine (Mean) (40-mg group, Visit 1 (Day 0)): 74.1
- Systolic BP, Orthostatic Changes (40-mg group, Visit 1 (Day 0)): −0.3
- Blood Pressure diastolic, Standing (Mean) (40-mg group, Visit 2 (Day 1)): 72.6
- Blood Pressure diastolic, Supine (Mean) (40-mg group, Visit 2 (Day 1)): 70.5
- Blood Pressure systolic, Standing (Mean) (40-mg group, Visit 2 (Day 1)): 128.3
- Blood Pressure systolic, Supine (Mean) (40-mg group, Visit 2 (Day 1)): 128.0
- Diastolic BP, Orthostatic Changes (40-mg group, Visit 2 (Day 1)): 2.1
- Pulse, Orthostatic Changes (40-mg group, Visit 2 (Day 1)): 4.5
- Pulse, Standing (Mean) (40-mg group, Visit 2 (Day 1)): 78.6
- Pulse, Supine (Mean) (40-mg group, Visit 2 (Day 1)): 74.1
- Systolic BP, Orthostatic Changes (40-mg group, Visit 2 (Day 1)): 0.3
- Blood Pressure diastolic, Standing (Mean) (40-mg group, Visit 3 (Day 4)): 73.1
- Blood Pressure diastolic, Supine (Mean) (40-mg group, Visit 3 (Day 4)): 72.5
- Blood Pressure systolic, Standing (Mean) (40-mg group, Visit 3 (Day 4)): 129.4
- Blood Pressure systolic, Supine (Mean) (40-mg group, Visit 3 (Day 4)): 129.8
- Diastolic BP, Orthostatic Changes (40-mg group, Visit 3 (Day 4)): 0.6
- Pulse, Orthostatic Changes (40-mg group, Visit 3 (Day 4)): 2.0
- Pulse, Standing (Mean) (40-mg group, Visit 3 (Day 4)): 76.7
- Pulse, Supine (Mean) (40-mg group, Visit 3 (Day 4)): 74.7
- Systolic BP, Orthostatic Changes (40-mg group, Visit 3 (Day 4)): −0.4
- Blood Pressure diastolic, Standing (Mean) (40-mg group, Visit 4 (Day 14)): 71.0
- Blood Pressure diastolic, Supine (Mean) (40-mg group, Visit 4 (Day 14)): 71.1
- Blood Pressure systolic, Standing (Mean) (40-mg group, Visit 4 (Day 14)): 124.9
- Blood Pressure systolic, Supine (Mean) (40-mg group, Visit 4 (Day 14)): 128.4
- Diastolic BP, Orthostatic Changes (40-mg group, Visit 4 (Day 14)): −0.1
- Pulse, Orthostatic Changes (40-mg group, Visit 4 (Day 14)): 3.9
- Pulse, Standing (Mean) (40-mg group, Visit 4 (Day 14)): 75.6
- Pulse, Supine (Mean) (40-mg group, Visit 4 (Day 14)): 71.7
- Systolic BP, Orthostatic Changes (40-mg group, Visit 4 (Day 14)): −3.4
- Blood Pressure diastolic, Standing (Mean) (40-mg group, Visit 5 (Day 28)): 71.6
- Blood Pressure diastolic, Supine (Mean) (40-mg group, Visit 5 (Day 28)): 72.0
- Blood Pressure systolic, Standing (Mean) (40-mg group, Visit 5 (Day 28)): 124.3
- Blood Pressure systolic, Supine (Mean) (40-mg group, Visit 5 (Day 28)): 124.1
- Diastolic BP, Orthostatic Changes (40-mg group, Visit 5 (Day 28)): −0.4
- Pulse, Orthostatic Changes (40-mg group, Visit 5 (Day 28)): 3.8
- Pulse, Standing (Mean) (40-mg group, Visit 5 (Day 28)): 76.6
- Pulse, Supine (Mean) (40-mg group, Visit 5 (Day 28)): 72.7
- Systolic BP, Orthostatic Changes (40-mg group, Visit 5 (Day 28)): 0.3
- Blood Pressure diastolic, Standing (Mean) (40-mg group, Visit 6 (Day 70)): 73.2
- Blood Pressure diastolic, Supine (Mean) (40-mg group, Visit 6 (Day 70)): 73.7
- Blood Pressure systolic, Standing (Mean) (40-mg group, Visit 6 (Day 70)): 127.6
- Blood Pressure systolic, Supine (Mean) (40-mg group, Visit 6 (Day 70)): 127.3
- Diastolic BP, Orthostatic Changes (40-mg group, Visit 6 (Day 70)): −0.5
- Pulse, Orthostatic Changes (40-mg group, Visit 6 (Day 70)): 3.5
- Pulse, Standing (Mean) (40-mg group, Visit 6 (Day 70)): 73.9
- Pulse, Supine (Mean) (40-mg group, Visit 6 (Day 70)): 7034
- Systolic BP, Orthostatic Changes (40-mg group, Visit 6 (Day 70)): 0.3
- Blood Pressure diastolic, Standing (Mean) [2]: 73.2
- Blood Pressure diastolic, Supine (Mean) [2]: 71.3
- Blood Pressure systolic, Standing (Mean) [2]: 122.2
- Blood Pressure systolic, Supine (Mean) [2]: 126.7
- Diastolic BP, Orthostatic Changes [2]: 1.9
- Pulse, Orthostatic Changes [2]: 3.2
- Pulse, Standing (Mean) [2]: 76.3
- Pulse, Supine (Mean) [2]: 73.1
- Systolic BP, Orthostatic Changes [2]: −4.5
- Blood Pressure diastolic, Standing (Mean) [3]: 68.7
- Blood Pressure diastolic, Supine (Mean) [3]: 72.2
- Blood Pressure systolic, Standing (Mean) [3]: 123.1
- Blood Pressure systolic, Supine (Mean) [3]: 130.0
- Diastolic BP, Orthostatic Changes [3]: −3.5
- Pulse, Orthostatic Changes [3]: 4.1
- Pulse, Standing (Mean) [3]: 74.3
- Pulse, Supine (Mean) [3]: 70.2
- Systolic BP, Orthostatic Changes [3]: −6.9
- Blood Pressure diastolic, Supine (Mean) [4]: 69.4
- Blood Pressure systolic, Supine (Mean) [4]: 132.4
- Pulse, Supine (Mean) [4]: 63.9
- Blood Pressure diastolic, Standing (Mean) (80-mg group, Visit 1 (Day 0)): 70.2
- Blood Pressure diastolic, Supine (Mean) (80-mg group, Visit 1 (Day 0)): 68.4
- Blood Pressure systolic, Standing (Mean) (80-mg group, Visit 1 (Day 0)): 125.4
- Blood Pressure systolic, Supine (Mean) (80-mg group, Visit 1 (Day 0)): 129.8
- Diastolic BP, Orthostatic Changes (80-mg group, Visit 1 (Day 0)): 1.8
- Pulse, Orthostatic Changes (80-mg group, Visit 1 (Day 0)): 6.9
- Pulse, Standing (Mean) (80-mg group, Visit 1 (Day 0)): 72.6
- Pulse, Supine (Mean) (80-mg group, Visit 1 (Day 0)): 65.6
- Systolic BP, Orthostatic Changes (80-mg group, Visit 1 (Day 0)): −4.4
- Blood Pressure diastolic, Standing (Mean) (80-mg group, Visit 2 (Day 1)): 71.9
- Blood Pressure diastolic, Supine (Mean) (80-mg group, Visit 2 (Day 1)): 66.7
- Blood Pressure systolic, Standing (Mean) (80-mg group, Visit 2 (Day 1)): 123.1
- Blood Pressure systolic, Supine (Mean) (80-mg group, Visit 2 (Day 1)): 122.8
- Diastolic BP, Orthostatic Changes (80-mg group, Visit 2 (Day 1)): 5.2
- Pulse, Orthostatic Changes (80-mg group, Visit 2 (Day 1)): 7.3
- Pulse, Standing (Mean) (80-mg group, Visit 2 (Day 1)): 72.3
- Pulse, Supine (Mean) (80-mg group, Visit 2 (Day 1)): 65.1
- Systolic BP, Orthostatic Changes (80-mg group, Visit 2 (Day 1)): 0.3
- Blood Pressure diastolic, Standing (Mean) (80-mg group, Visit 3 (Day 4)): 69.2
- Blood Pressure diastolic, Supine (Mean) (80-mg group, Visit 3 (Day 4)): 66.7
- Blood Pressure systolic, Standing (Mean) (80-mg group, Visit 3 (Day 4)): 124.8
- Blood Pressure systolic, Supine (Mean) (80-mg group, Visit 3 (Day 4)): 127.1
- Diastolic BP, Orthostatic Changes (80-mg group, Visit 3 (Day 4)): 2.5
- Pulse, Orthostatic Changes (80-mg group, Visit 3 (Day 4)): 6.2
- Pulse, Standing (Mean) (80-mg group, Visit 3 (Day 4)): 72.9
- Pulse, Supine (Mean) (80-mg group, Visit 3 (Day 4)): 66.7
- Systolic BP, Orthostatic Changes (80-mg group, Visit 3 (Day 4)): −2.3
- Blood Pressure diastolic, Standing (Mean) (80-mg group, Visit 4 (Day 14)): 68.8
- Blood Pressure diastolic, Supine (Mean) (80-mg group, Visit 4 (Day 14)): 65.2
- Blood Pressure systolic, Standing (Mean) (80-mg group, Visit 4 (Day 14)): 123.7
- Blood Pressure systolic, Supine (Mean) (80-mg group, Visit 4 (Day 14)): 125.1
- Diastolic BP, Orthostatic Changes (80-mg group, Visit 4 (Day 14)): 3.5
- Pulse, Orthostatic Changes (80-mg group, Visit 4 (Day 14)): 7.9
- Pulse, Standing (Mean) (80-mg group, Visit 4 (Day 14)): 72.6
- Pulse, Supine (Mean) (80-mg group, Visit 4 (Day 14)): 64.6
- Systolic BP, Orthostatic Changes (80-mg group, Visit 4 (Day 14)): −1.4
- Blood Pressure diastolic, Standing (Mean) (80-mg group, Visit 5 (Day 28)): 71.9
- Blood Pressure diastolic, Supine (Mean) (80-mg group, Visit 5 (Day 28)): 68.9
- Blood Pressure systolic, Standing (Mean) (80-mg group, Visit 5 (Day 28)): 119.5
- Blood Pressure systolic, Supine (Mean) (80-mg group, Visit 5 (Day 28)): 124.6
- Diastolic BP, Orthostatic Changes (80-mg group, Visit 5 (Day 28)): 3.0
- Pulse, Orthostatic Changes (80-mg group, Visit 5 (Day 28)): 3.8
- Pulse, Standing (Mean) (80-mg group, Visit 5 (Day 28)): 72.5
- Pulse, Supine (Mean) (80-mg group, Visit 5 (Day 28)): 68.7
- Systolic BP, Orthostatic Changes (80-mg group, Visit 5 (Day 28)): −5.2
- Blood Pressure diastolic, Standing (Mean) (80-mg group, Visit 6 (Day 70)): 70.0
- Blood Pressure diastolic, Supine (Mean) (80-mg group, Visit 6 (Day 70)): 66.2
- Blood Pressure systolic, Standing (Mean) (80-mg group, Visit 6 (Day 70)): 124.8
- Blood Pressure systolic, Supine (Mean) (80-mg group, Visit 6 (Day 70)): 123.1
- Diastolic BP, Orthostatic Changes (80-mg group, Visit 6 (Day 70)): 3.8
- Pulse, Orthostatic Changes (80-mg group, Visit 6 (Day 70)): 2.1
- Pulse, Standing (Mean) (80-mg group, Visit 6 (Day 70)): 67.6
- Pulse, Supine (Mean) (80-mg group, Visit 6 (Day 70)): 65.5
- Systolic BP, Orthostatic Changes (80-mg group, Visit 6 (Day 70)): 1.6
- Blood Pressure diastolic, Standing (Mean) [5]: 67.1
- Blood Pressure diastolic, Supine (Mean) [5]: 64.4
- Blood Pressure systolic, Standing (Mean) [5]: 123.3
- Blood Pressure systolic, Supine (Mean) [5]: 118.4
- Diastolic BP, Orthostatic Changes [5]: 2.7
- Pulse, Orthostatic Changes [5]: 6.1
- Pulse, Standing (Mean) [5]: 70.4
- Pulse, Supine (Mean) [5]: 64.3
- Systolic BP, Orthostatic Changes [5]: 4.8
- Blood Pressure diastolic, Standing (Mean) [6]: 67.9
- Blood Pressure diastolic, Supine (Mean) [6]: 66.9
- Blood Pressure systolic, Standing (Mean) [6]: 117.7
- Blood Pressure systolic, Supine (Mean) [6]: 120.7
- Diastolic BP, Orthostatic Changes [6]: 1.0
- Pulse, Orthostatic Changes [6]: 4.3
- Pulse, Standing (Mean) [6]: 72.6
- Pulse, Supine (Mean) [6]: 68.3
- Systolic BP, Orthostatic Changes [6]: −3.0
- Hypotensive effects (treated groups, 40 and 80 mg BID): Dose dependent hypotensive affects were observed
